From patent US9464291B2, “Methods and compositions for the treatment of cancer” (University of South Alabama, priority 2012, dated 2016)

Assays:
OPN promoter = OPN promoter luciferase reporter assay in melanoma cell lines; format: cell-based, human; conditions: MDA-MB-435, MCC012A, MCC012F
Method: Empty pGL3 vector was used as control. Hedgehog ligands were added to the well 6 h prior to harvesting the cells (approximately 33 hr of initiation of transfection) for assay. Readings were normalized to total protein content. Each parameter was studied in triplicate and the experiment repeated at least 3 times. The data are represented as percent luciferase activity, which was derived as a percent of the relative light units in treated groups compared with the untreated groups.

OPN = OPN expression in pre-osteoclastic RAW264.7 cells; format: cell-based, murine
Method: Western Blotting Analysis—Whole cell lysates were collected in NP-40 buffer (150 mM NaCl, 50 mM Tris, 1% NP-40). Total protein (30 μg) was resolved by SDS-PAGE gel and transferred to PVDF membranes. Membranes were immunoblotted overnight at 4° C. with antibodies to either SHH (Santacruz, Calif., USA) or IHH (Santacruz). Equal loading was confirmed with anti-β-tubulin (Cell Signaling, Danvers, Mass.). To assess OPN expression upon SHH treatment, […] were grown in 6-well plates in the presence of SHH. After 24 hours the cells were lysed in NP-40 buffer and 30 μg of each experimental group assessed by immunoblotting. To assess for the expression of OPN, MMP9 and CTSK, at the end of Day 6 of differentiation, all the different experimental groups were kept in serum free medium for 24 hrs and both, the conditioned media and whole cell lysates were collected and immunoblotted using antibodies to either anti-mouse OPN (Millipore, Bedford, Mass.), or CTSK (SantaCruz Biotech). Equal loading was confirmed with anti-β-actin (Sigma) antibody. Secreted MMP9 (Santa Cruz Biotech) was assessed by loading equal quantity of protein from the serum-free conditioned medium. […] Detection and quantification of proteins was done using Fuji LAS 3000 apparatus and Multigauge V3.1 software (Fujifilm, Valhalla, N.Y.). Band intensities were measured in arbitrary Units (AU). […]
Luciferase Assay—Cells were co-transfected with the OPN promoter construct, pGL3-OPNB and pSV-β-galactosidase (Promega) (Das, S., et al. (2009) J Biol Chem 284, 22888-22897). […] Readings were normalized to β-galactosidase. […]
Quantitative RT-PCR (qRT-PCR)-cDNA was generated using High Capacity Reverse Transcriptase Kit (Applied Biosystems, Foster City, Calif.). […] Following the experimental regime as described herein (for Osteoclast differentiation/activity) RNA was isolated using Trizol (Invitrogen) and assessed as describere herein. […]

Shh, Ihh = assay: Shh and Ihh protein levels in A2780-CP70 cells; format: cell-based, human; conditions: cyclopamine-treated
Method: SHH and IHH protein levels were assessed in cyclopamine-treated A2780-CP70 cells by Western blot analysis. Referring to FIG. 28, SHH protein (51 kDa) was detected in cytoplasmic fractions, but not nuclear fractions of treated cells at 0 hr. […] At 48 hr, SHH protein levels were prominent in cytoplasmic and nuclear fractions, and remained prominent through 72 hr. Referring to FIG. 29, IHH protein (45 kDa) was detected in cytoplasmic and nuclear fractions of treated cells at 0 hr. At 6 hr, IHH protein levels were more prominent in nuclear fractions than in cytoplasmic fractions. At 24 hr, IHH protein levels were low in both nuclear and cytoplasmic fractions. However, at 48 hr IHH protein levels increased in nuclear fractions through to 72 hr. IHH was only weakly present in the cytoplasmic fractions between 48-72 hr. […] After 24 hr SHH and IHH protein levels were similar in nuclear and cytoplasmic fractions. SHH and IHH protein levels rebounded by 48 hr and 72 hr.
The effects of an IC50 dose of anti-Gli1 shRNA on cisplatin-sensitive A2780 cells and cisplatin-resistant A2780-CP70 cells were assessed. Cisplatin-sensitive A2780 cells and cisplatin-resisitant A2780-CP70 cells were treated with 2.0 μg/ml shRNA per 200 microliter well anti-Gli1 shRNA. Protein levels of Gli1, Gli2, c-jun, Shh, Ihh, and GAPDH (control) were measured. […]

Row | Compound | OPN promoter activity (OPN promoter) | OPN protein levels (OPN; 24 hours post SHH) | OPN promoter activity (OPN; 24 hours post-SHH) | OPN mRNA levels (OPN; recombinant SHH) | SHH and IHH protein levels (Shh, Ihh)
1 | SHH: recombinant Sonic hedgehog ligand (R & D Systems) | up-regulated the promoter activity of OPN | increased protein levels of OPN | increase in the activity of the OPN promoter | dose-dependent significant (p<0.0001) increase in OPN mRNA levels | –
2 | CC1=C2C[C@H]3[C@@H](CC=C4C[C@@H](O)CC[C@@]43C)[C@@H]2CC[C@]12O[C@@H]1C[C@H](C)CN[C@H]1[C@H]2C [cyclopamine] | – | – | – | – | reduced at 24 hr
